In patent publication US8148392B2, “2-indolyl imidazo [4,5-d] phenanthroline derivatives and their use in the treatment of cancer” (Lorus Therapeutics Inc., priority 2005, dated 2012):
Entries after “also recorded” stand apart in the source; their conditions may differ.

Tests used:
[1] = PAR metal binding assay, iron; type: physicochemical; details: 200 μM compound
Method: (§1) Results are shown in FIGS. 28A (ZnCl2), 28B (CuCl2) and 28C (FeCl2). In vitro 4-(2-pyridylazo) resorcinol (PAR) zinc binding assay was performed as follows. In triplicate wells of 96-well plate (Sarstedt, Newton, N.C.), 10 μL volume of indicated final concentrations of ZnCl2 in 0.2M Tris-HCl, pH 7.5 was incubated with 10 μL of 80% acetonitrile-20% DMSO vehicle control or indicated final concentrations of the compounds of Formula I, dissolved in 80% acetonitrile-20% DMSO, for 15 min at room temperature. Then, 80 μL of PAR at final concentration of 200 μM in 0.2M Tris-HCl, pH 7.5 was added and the color development of PAR-Zn^2+ complex was measured by a multi-well spectrophotometer (Bio-Tek Instruments Inc.) at 500 nm.
(§2) Metal chelation property of compound 64 and the relative affinity on different metal ions were evaluated and compared with the effect of compound 3 in vitro using 4-(2-pyridylazo) resorcinol (PAR) colorimetric zinc assay utilizing methodology as described above in the preceding Examples. Indicated final concentrations of ZnCl2 (FIG. 56A), CuCl2 (FIG. 56B) or FeCl2 (FIG. 56C) were incubated with 80% acetonitrile-20% DMSO vehicle control or 200 μM of the compounds of Formula I. The color development of PAR-metal ion complex was measured by a multi-well spectrophotometer at 500 nm.

MTF-1 = MTF-1 mRNA in HT-29 tumour xenografts, RT-PCR; type: in vivo, CD-1 athymic nude mice; details: HT-29 xenograft, versus vehicle
Method: (§3) Correlation between zinc-sensitive transcription factor MTF-1 and a cell cycle regulator Cyclin D1 expression in HT-29 colon cancer xenograft tissues is shown in FIG. 30. Based on the presence of putative MTF-1-binding DNA sequences in Cyclin D1 gene promoter region (shown in FIG. 30A), expression levels of MTF-1 and Cyclin D1 in xenograft tissues were examined by RT-PCR, using tissue RNA extract.
The tumor regression efficacy of compound 3 was assessed in compound 3-treated HT-29-transplanted athymic mice (FIG. 54A), and correlated with gene expressions of MTF-1, KLF4 and Cyclin D1 in HT-29 xenograft tissues (FIG. 54B). CD-1 athymic nude mice (4 per group) were injected subcutaneously with HT-29 cells (3×10^6 cells in 0.1 mL PBS). At 5 days after tumor cell inoculation, the mice were intra-peritoneally injected with 200 μL vehicle control or 100 mg/kg compound 3, for 5 days followed by 10 days interval, for 2 cycles (day 5 to 9 as a first cycle injection and day 20 to 24 as a second cycle injection). The tumor size was measured during the course of treatment using calipers (FIG. 54A). The mice were sacrificed at 34 days after tumor cell inoculation. The tumor tissues were excised, frozen immediately and stored at −80° C. until RNA extraction and gene expression was analyzed by RT-PCR (FIG. 54B). […]

Cyclin D1 = Cyclin D1 mRNA in HT-29 tumour xenografts, RT-PCR; type: in vivo, CD-1 female nude mice; details: HT-29 xenograft, versus vehicle
Method: The ability of compound 3 to modulate expression of Cyclin D1 was determined using the HT-29 colon tumour xenograft model as described in Example 26. The expression of Cyclin D1 mRNA was analyzed by real-time polymerase chain reaction as described in Example 30. […] The results of this experiment combined with the results described for the effect of compound 3 in vivo on KLF4 and P21 expression as described in Examples 30 and 31 are shown in FIG. 20.
as §3
To examine the effect of compound 3-mediated changes in KLF4 and Cyclin D1 expressions in vivo, the expressions of respective genes in xenograft tissues of vehicle control (Lutrol) and compound 3-treated HT-29 colon cancer cell-transplanted mice were analyzed by RT-PCR (FIG. 46). Briefly, KLF4 and Cyclin D1 gene expression in HT-29 xenograft tissues after 14 days treatment with compound 3 was measured as follows. The mice subcutaneously transplanted with HT-29 cells were treated with vehicle control (administerd i.p.) or 100 mg/kg compound 3 (administered i.p.) for 14 days (n=6 in each group). Total RNA was extracted and gene expression level was determined by RT-PCR. KLF4 and Cyclin D1 gene expressions were normalized with β-actin gene expression in the same sample. […]
The tumor regression efficacy of compound 3 was assessed in compound 3-treated HT-29-transplanted athymic mice (FIG. 54A), and correlated with gene expressions of MTF-1, KLF4 and Cyclin D1 in HT-29 xenograft tissues (FIG. 54B). […] The tumor size was measured during the course of treatment using calipers (FIG. 54A). […] The tumor tissues were excised, frozen immediately and stored at −80° C. until RNA extraction and gene expression was analyzed by RT-PCR (FIG. 54B). […]

[2] = PAR metal binding assay, copper; type: physicochemical; details: pH 7.5, 200 μM PAR
Method: as §1, §2

Compound	color development of PAR-Fe2+ [1]	MTF-1 expression in tumour xenografts (MTF-1; listed as compound 3)	Cyclin D1 expression in tumour xenografts (Cyclin D1)	Cyclin D1 expression in tumour xenografts (Cyclin D1; listed as compound 3)	Cu+2 binding to PAR (PAR-Cu2+ absorbance at 500 nm) [2]	MTF-1 expression in tumour xenografts (MTF-1)
Cc1[nH]c2ccccc2c1-c1nc2c3cccnc3c3ncccc3c2[nH]1 [Compound 3]	minimally affected	Decreased MTF-1 expression; also recorded: decrease in MTF-1 and Cyclin D1 gene expressions	consistently reduced the expression of Cyclin D1	decreased Cyclin D1 expression; also recorded: decrease in MTF-1 and Cyclin D1 gene expressions	attenuated; also recorded: eliminated	
Cc1[nH]c2ccc(F)cc2c1-c1nc2c3cccnc3c3ncccc3c2[nH]1 [Compound 7]			decreased Cyclin D1 expression			Decreased MTF-1 expression
CCc1cccc2c(-c3nc4c5cccnc5c5ncccc5c4[nH]3)c(C(C)(C)C)[nH]c12 [Compound 64]	minimally affected				eliminated	
